# US20070071773A1, “Compositions and methods for the treatment and prophylaxis of infections caused by gram positive bacteria” (priority 2002, published 2007)
# Assays:
# GAS strain JS95 [1] = assay: Histopathology of soft-tissue lesions: neutrophil (PMN) recruitment in mice challenged with JS95; type: in vivo, Group A Streptococcus (GAS); settings: 10^8 CFU JS95 with 100 μg of 70% pure peptide, 24 h after inoculation, FIG. 11C, 11D
# Procedure: Haematoxylin and eosin stain of the soft-tissue lesions from a mouse challenged with 10^8 CFU of JS95 24 h after inoculation (11A-11B) in the presence of 100 μg of 70% pure peptide (11C, 11D). After 24 hours, skin samples were stained with hematoxiline and eosine and examined by microscopy at 50 (11A, 11C) and 400 (11B, 11D) fold magnification. There is extensive necrosis of fascia, massive presence of bacteria but no infiltration of neutrophils. There were no differences in the histopathology findings as determined in two mice in 4 different experiments.
# The ability of GAS to cause lethal infection in ten-gram BALB/c female mice (Harlan Laboratories, Jerusalem, Israel) was assessed as described before [Ravins, M. et al. J. Infect. Dis. 182:1702-11 (2000)]. Briefly, 10^8 CFU of log-phase bacteria were washed twice in PBS, resuspended in 0.1 ml PBS and injected subcutaneously into the back of a mouse. The number of CFU injected was verified for each experiment by plating bacteria on THY-blood agar plates and counting. Each group contained 8 to 10 mice that were observed daily for death and changes in the lesions' properties such as size and depth, or were sacrificed at different times after inoculation for histopathological assessment. […] Aliquots were plated and streptococcal colonies were counted. […]
# [2] = tested on: serotype M14, M1 and M3 strains; assay: Neutrophil recruitment in mice challenged with different GAS serotypes; type: in vivo, Group A Streptococcus (GAS)
# Text: The absence (M1 and M3) or mutation (M14) of the gene encoding the SilCR pheromone in those GAS strains may eliminate a counter-regulatory mean to a GAS chemokine proteolysis, resulting in an increased virulence potential for invasive soft tissue infections.
# C5a peptidase = assay: Surface expressed C5a peptidase of GAS in the absence and presence of SilCR; type: cell-based, Group A Streptococcus (GAS); settings: absence vs presence of SilCR (not shown)
# GAS strain JS95 [3] = assay: Murine model of invasive soft-tissue infection: survival and skin lesions after subcutaneous challenge with JS95; type: in vivo, Group A Streptococcus (GAS)
# Procedure: The ability of GAS to cause lethal infection in ten-gram BALB/c female mice (Harlan Laboratories, Jerusalem, Israel) was assessed as described before [Ravins, M. et al. J. Infect. Dis. 182:1702-11 (2000)]. Briefly, 10^8 CFU of log-phase bacteria were washed twice in PBS, resuspended in 0.1 ml PBS and injected subcutaneously into the back of a mouse. The number of CFU injected was verified for each experiment by plating bacteria on THY-blood agar plates and counting. Each group contained 8 to 10 mice that were observed daily for death and changes in the lesions' properties such as size and depth, or were sacrificed at different times after inoculation for histopathological assessment. To determine the presence of bacteria in skin and spleen, mice were sacrificed; a wide area surrounding the skin lesions was excised, spleens were removed, and organs were homogenized in 10 or 1 ml of sterile PBS, respectively. Aliquots were plated and streptococcal colonies were counted. The Institutional Ethics Committee for animal care approved all animal procedures (approval number MD 79.17-4).
# Therefore, the inventors next tested the peptide effect on virulence of the highly invasive strain of the invention. A 17 amino acid peptide, corresponding to the amino acid sequence encoded by the SilCR ORF, was synthesized and purified. Mice were challenged with the highly virulent strain (JS95) in the presence and absence of the 17 amino acid synthetic peptide DIFKLVIDHISMKARKK (also denoted by SEQ ID NO: 32), of a 70% purity.
# The ability of the peptide to protect mice inoculated with increasing doses of the bacteria ranging from 10^7 to 10^10 CFU was next examined. […] Mice challenged with a low dose of 10^7 CFU, in the absence of the peptide, died within 4 days after challenge. […] Results were consistent even after 21 days of follow up (data not shown).
# Mice were injected under the surface of the skin with 2×10^8 of M14 GAS strain, JS95, without (FIG. 8A) or with 25 μg of the highly purified (90% purity) 17 amino acid peptide (SEQ ID NO: 32) (FIG. 8B).
# In order to examine the ability of the 17 amino acid peptide (SEQ ID NO: 32) to protect against bacterial challenge, mice were injected with 200 μg of this peptide 24 hours prior to bacterial challenge. As shown by FIG. 9, the 17 amino acid peptide protects 50% of the mice when injected 24 hours before bacterial challenge of 4×10^8 CFU of JS95 strain.
# [4] = peptide of 90% purity mixed with 10^8 CFU JS95, subcutaneous, FIG. 6
sequence,measurement,setting,value
"DIFKLVIDHISMKARKK (SilCR peptide) [17 amino acid synthetic peptide, predicted mature form of the pheromone peptide encoded by the SilCR ORF; used at 70% or 90% purity]",recruitment of PMN / neutrophil infiltration at the site of infection,GAS strain JS95 [1],abundant neutrophil infiltration
same,recruitment of PMN / neutrophil infiltration at the site of infection,GAS strain JS95 [1]; listed as peptide,significant recruitment of PMN
same,neutrophil recruitment,[2],improved neutrophil recruitment
same,amount of surface expressed C5a peptidase,C5a peptidase,did not observe any change
same,protection of mice (survival),"GAS strain JS95 [3]; 3 μg of the 90% purified peptide, JS95 challenge as high as 10^10 CFU, FIG. 16A",protected mice
same,survival of mice,"GAS strain JS95 [3]; 25 μg peptide (90% purity) with 2×10^8 JS95 under the surface of the skin, FIG. 8",all mice of this group survived
same,skin lesion,"GAS strain JS95 [3]; 25 μg peptide (90% purity) with 2×10^8 JS95 under the surface of the skin, FIG. 8B, 8D",small abscess surrounded by a normal skin
same,protection of mice (survival),"GAS strain JS95 [3]; 100 μg peptide (70% purity) injected together with 10^7 CFU JS95, FIG. 5",partial protection
same,mice protected,"GAS strain JS95 [3]; 200 μg peptide (70% pure) injected 24 hours before challenge with 4×10^8 CFU JS95, FIG. 9",50%
same,protection of mice (survival),"GAS strain JS95 [3]; 200 μg peptide (70% pure), challenge with 10^7 and up to 10^9 CFU JS95, FIG. 7",completely protected
same,deaths of mice,"GAS strain JS95 [3]; 200 μg peptide (70% pure), challenge with 10^10 CFU JS95, FIG. 7",only one mouse died
same,protection of mice (survival),"GAS strain JS95 [3]; 200 μg peptide (70% purity) injected together with 10^7 CFU JS95, FIG. 5",complete protection
same,lesions of mice,"GAS strain JS95 [3]; challenged with JS95 and SilCR, compared with JS95 alone, FIG. 8B vs 8A","significantly smaller, less necrotic and superficial, with defined borders"
same,dose dependence of protection of mice,"GAS strain JS95 [3]; peptide of 70% purity, 10^7 CFU JS95, FIG. 5",dose-dependent
same,peptide dose at which the protective effect is evident,GAS strain JS95 [3]; [4],3 µg
same,peptide dose reaching plateau level of protection,GAS strain JS95 [3]; [4],50 µg
same,protection of mice when administered at a site distant to the bacterial challenge,GAS strain JS95 [3]; simultaneously administered at a distant site,nor did it protect mice
